Test results: US20250248970A1, “NOVEL SUBSTITUTED FLUORINATED N-PROPYL-PYRROLIDINE COMPOUNDS, PROCESSES FOR THEIR PREPARATION AND THERAPEUTIC USES THEREOF” (SANOFI, priority 2022, published 2025)

The compounds below were run against T1, ERα (Homo sapiens, UniProt P03372) (assay: Estrogen receptor degradation activity (breast cancer cell ERα in cell western assay)). Conditions: MCF7 cells, 0.3 μM, 4 hours, % of ERα levels decrease relative to fulvestrant.
T1 construct: host or cells: MCF7
T1 sequence (P03372 1-595): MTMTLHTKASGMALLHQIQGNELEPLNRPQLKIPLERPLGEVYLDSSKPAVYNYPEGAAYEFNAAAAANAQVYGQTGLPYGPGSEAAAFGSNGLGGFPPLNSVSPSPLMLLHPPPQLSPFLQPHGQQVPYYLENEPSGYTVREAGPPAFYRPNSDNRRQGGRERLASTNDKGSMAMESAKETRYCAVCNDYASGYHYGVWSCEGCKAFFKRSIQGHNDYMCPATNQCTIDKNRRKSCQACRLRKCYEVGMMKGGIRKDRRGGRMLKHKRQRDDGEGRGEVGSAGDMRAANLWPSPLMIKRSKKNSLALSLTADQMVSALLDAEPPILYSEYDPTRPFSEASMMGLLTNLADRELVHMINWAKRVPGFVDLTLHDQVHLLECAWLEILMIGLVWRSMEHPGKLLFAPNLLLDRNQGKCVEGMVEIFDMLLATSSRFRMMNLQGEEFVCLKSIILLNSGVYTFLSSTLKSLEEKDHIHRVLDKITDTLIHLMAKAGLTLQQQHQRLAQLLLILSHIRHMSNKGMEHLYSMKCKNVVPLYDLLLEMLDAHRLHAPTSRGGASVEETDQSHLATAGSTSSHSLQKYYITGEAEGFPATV
Format: cell-based
Experimental: Said test involves measuring the in vitro degradation activity of the compounds of the Table 1a.
The measurements of the degradation activities were made using a breast cancer cell ERα in cell western assay as described hereunder.
MCF7 cells (ATCC) were seeded in 384 wells microplate (collagen coated) at a concentration of 10000 cells/30 μL per well in red phenol free MEM alpha medium (invitrogen) containing 5% charcoal dextran striped FBS. The following day, 9 points serial 1:5 dilution of each compound was added to the cells in 2.5p L at final concentrations ranging from 0.3-0.0000018 μM (in table 2), or 0.1 μM for fulvestrant (using as positive control). At 4 hours post compound addition the cells were fixed by adding 25 μL of formalin (final concentration 5% formalin containing 0.1% triton) for 10 minutes at room temperature and then washed twice with PBS. Then, 50 μL of LI-COR blocking buffer containing 0.1% Triton was added to plate for 30 minutes at room temperature. LI-COR blocking buffer was removed and cells were incubated overnight at cold room with 50 μL anti-ER rabbit monoclonal antibody (Thermo scientific MA1-39540) diluted at 1:1000 in LI-COR blocking buffer containing 0.1% tween-20. Wells which were treated with blocking buffer but no antibody were used as background control. Wells were washed twice with PBS (0.1% tween-20) and incubated at 37° C. for 60 minutes in LI-COR (0.1% tween-20) containing goat anti-rabbit antibody Alexa 488 (1:1000) and Syto-64 a DNA dye (2 μM final concentration). Cells were then washed 3 times in PBS and scanned in ACUMEN explorer (TTP-Labtech). Integrated intensities in the green fluorescence and red fluorescence were measured to determine the levels of ERα and DNA respectively.
The degradation activity with respect to estrogen receptors in this test is given by the concentration which degrades 50% of the estrogen receptor (or IC50) in nM.
The % of ERα levels decrease were determined as follows: % inhibition=100*(1−(sample−fulvestrant: DMSO−fulvestrant)).

| % Degradation At 0.3 μM [%] | Compound |
| --- | --- |
| 48 | O=C(O)C(F)(F)F.O=C(O)c1ccc2c(c1)CCCC(c1ccc(Cl)cc1Cl)=C2c1ccc(CC2(F)CCN(CCCF)C2)cc1 (single isomer, unassigned; isomer 2) [Compound 22, 8-(2,4-dichlorophenyl)-9-(4-((3-fluoro-1-(3-fluoropropyl)pyrrolidin-3-yl)methyl)phenyl)-6,7-dihydro-5H-benzo[7]annulene-3-carboxylic acid, 2,2,2-trifluoroacetic acid, Isomer 2] |
| 92 | Cl.O=C(O)c1ccc2c(c1)CCC(c1ccc(Cl)cc1Cl)=C2c1ccc(CC2CCN(CCCF)C2)cc1 (single isomer, unassigned; isomer 1) [Compound 36, 6-(2,4-dichlorophenyl)-5-(4-((1-(3-fluoropropyl)pyrrolidin-3-yl)methyl)phenyl)-7,8-dihydronaphthalene-2-carboxylic acid hydrochloride, Isomer 1] |
| 70 | Oc1ccc2c(c1)SCCC(c1ccccc1Cl)=C2c1ccc(CC2CCN(CCCF)C2)cc1 (single isomer, unassigned; isomer 1) [Compound 44, 4-(2-chlorophenyl)-5-(4-((1-(3-fluoropropyl)pyrrolidin-3-yl)methyl)phenyl)-2,3-dihydrobenzo[b]thiepin-8-ol, Isomer 1] |
| 73 | Cl.O=C(O)c1ccc2c(c1)CCCC(c1ccc(F)cc1Cl)=C2c1ccc(CC2CCN(CCC(F)F)C2)cc1 (single isomer, unassigned; isomer 1) [Compound 27, 8-(2-chloro-4-fluorophenyl)-9-(4-((1-(3,3-difluoropropyl)pyrrolidin-3-yl)methyl)phenyl)-6,7-dihydro-5H-benzo[7]annulene-3-carboxylic acid hydrochloride, Isomer 1] |
| 80 | O=C(O)c1ccc2c(c1)CCCC(c1ccc(Cl)cc1Cl)=C2c1ccc(CC2CCN(CCC(F)F)C2)cc1 (single isomer, unassigned; isomer 1) [Compound 9, 8-(2,4-dichlorophenyl)-9-(4-((1-(3,3-difluoropropyl)pyrrolidin-3-yl)methyl)phenyl)-6,7-dihydro-5H-benzo[7]annulene-3-carboxylic acid, Isomer 1] |
| 93 | Cl.O=C(O)c1ccc2c(c1)CCCC(c1ccc(Cl)cc1)=C2c1ccc(CC2CCN(CCCF)C2)cc1 (single isomer, unassigned; isomer 1) [Compound 37, 8-(4-chlorophenyl)-9-(4-((1-(3-fluoropropyl)pyrrolidin-3-yl)methyl)phenyl)-6,7-dihydro-5H-benzo[7]annulene-3-carboxylic acid hydrochloride, Isomer 1] |

More lines, now with the values behind:

| Compound | % Degradation At 0.3 μM [%] |
| --- | --- |
| Cc1c(C2=C(c3ccc(CC4CCN(CCC(F)F)C4)cc3)c3ccc(C(=O)O)cc3CCC2)cccc1C(F)(F)F.Cl (single isomer, unassigned; isomer 1) [Compound 28, 9-(4-((1-(3,3-difluoropropyl)pyrrolidin-3-yl)methyl)phenyl)-8-(2-methyl-3-(trifluoromethyl)phenyl)-6,7-dihydro-5H-benzo[7]annulene-3-carboxylic acid hydrochloride, Isomer 1] | 78 |
| O=C(O)c1ccc2c(c1)CCCC(c1ccccc1C(F)(F)F)=C2c1ccc(CC2CCN(CCC(F)F)C2)cc1 (centres unmarked) [Compound 33, 9-(4-((1-(3,3-difluoropropyl)pyrrolidin-3-yl)methyl)phenyl)-8-(2-(trifluoromethyl)phenyl)-6,7-dihydro-5H-benzo[7]annulene-3-carboxylic acid] | 76 |
| Cl.O=C(O)c1ccc2c(c1)CCCC(c1ccc(F)cc1F)=C2c1ccc(CC2CCN(CCCF)C2)cc1 (single isomer, unassigned; isomer 1) [Compound 19, 8-(2,4-difluorophenyl)-9-(4-((1-(3-fluoropropyl)pyrrolidin-3-yl)methyl)phenyl)-6,7-dihydro-5H-benzo[7]annulene-3-carboxylic acid hydrochloride, Isomer 1] | 86 |
| Cl.O=C(O)c1ccc2c(c1)CCCC(c1cccc(Cl)c1)=C2c1ccc(CC2CCN(CCCF)C2)cc1 (single isomer, unassigned; isomer 1) [Compound 40, 8-(3-chlorophenyl)-9-(4-((1-(3-fluoropropyl)pyrrolidin-3-yl)methyl)phenyl)-6,7-dihydro-5H-benzo[7]annulene-3-carboxylic acid hydrochloride, Isomer 1] | 73 |
| Cl.O=C(O)c1ccc2c(c1)OCCC(c1ccc(Cl)cc1Cl)=C2c1ccc(CC2CCN(CCCF)C2)cc1 (single isomer, unassigned; isomer 2) [Compound 8, 4-(2,4-dichlorophenyl)-5-(4-((1-(3-fluoropropyl)pyrrolidin-3-yl)methyl)phenyl)-2,3-dihydrobenzo[b]oxepine-8-carboxylic acid hydrochloride, Isomer 2] | 63 |
| Cc1c(F)cccc1C1=C(c2ccc(CC3CCN(CCCF)C3)cc2)c2ccc(C(=O)O)cc2CCC1.Cl (single isomer, unassigned; isomer 1) [Compound 20, 8-(3-fluoro-2-methylphenyl)-9-(4-((1-(3-fluoropropyl)pyrrolidin-3-yl)methyl)phenyl)-6,7-dihydro-5H-benzo[7]annulene-3-carboxylic acid hydrochloride, Isomer 1] | 90 |
| O=C(O)C(F)(F)F.O=C(O)c1ccc2c(c1)CCCC(c1ccc(Cl)cc1Cl)=C2c1ccc(CC2(F)CCN(CCCF)C2)cc1 (single isomer, unassigned; isomer 1) [Compound 23, 8-(2,4-dichlorophenyl)-9-(4-((3-fluoro-1-(3-fluoropropyl)pyrrolidin-3-yl)methyl)phenyl)-6,7-dihydro-5H-benzo[7]annulene-3-carboxylic acid, 2,2,2-trifluoroacetic acid, Isomer 1] | 69 |
| Cc1c(Cl)cccc1C1=C(c2ccc(CC3CCN(CCCF)C3)cc2)c2ccc(C(=O)O)cc2CCC1 (single isomer, unassigned; isomer 1) [Compound 15, 8-(3-chloro-2-methylphenyl)-9-(4-((1-(3-fluoropropyl)pyrrolidin-3-yl)methyl)phenyl)-6,7-dihydro-5H-benzo[7]annulene-3-carboxylic acid, Isomer 1] | 88 |
